Source: PubChem BioAssay AID2060512 (Molecular Pharmacology Branch, DTP, NCI, 2025)
pIC50: −log10 of the molar value.

Tested on: 186277-243-T-J2-PDC complex spheroid viability
Test: Anticancer human tumor 186277-243-T-J2-PDC patient-derived colon adenocarcinoma cell line growth inhibition [GQUAD]
Settings: for pIC50: curve of first compound; for viability, T/C: stronger effect = lower value
In short: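 Viability of tumor cells grown as complex spheroids with endothelial and stromal cells, exposed to drug combinations. Top concentration at or near clinical Cmax (else 10 microM), diluted in half-log increments.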

[1] = second compound 0.0316 µM, first compound 0.0316 µM
[2] = second compound 0.0316 µM, first compound 0.1 µM
[3] = second compound 0.0316 µM, first compound 0.316 µM
[4] = second compound 0.0316 µM, first compound 1 µM
[5] = second compound 0.0316 µM, first compound 3.16 µM
[6] = second compound 0.0316 µM, first compound 10 µM
[7] = second compound 0.1 µM, first compound 0.0316 µM
[8] = second compound 0.1 µM, first compound 0.1 µM
[9] = second compound 0.1 µM, first compound 0.316 µM
[10] = second compound 0.1 µM, first compound 1 µM
[11] = second compound 0.1 µM, first compound 3.16 µM
[12] = second compound 0.1 µM, first compound 10 µM
[13] = second compound 0.316 µM, first compound 0.0316 µM
[14] = second compound 0.316 µM, first compound 0.1 µM
[15] = second compound 0.316 µM, first compound 0.316 µM
[16] = second compound 0.316 µM, first compound 1 µM
[17] = second compound 0.316 µM, first compound 3.16 µM
[18] = second compound 0.316 µM, first compound 10 µM
[19] = second compound 1 µM, first compound 0.0316 µM
[20] = second compound 1 µM, first compound 0.1 µM
[21] = second compound 1 µM, first compound 0.316 µM
[22] = second compound 1 µM, first compound 1 µM
[23] = second compound 1 µM, first compound 3.16 µM
[24] = second compound 1 µM, first compound 10 µM
[25] = second compound 3.16 µM, first compound 0.0316 µM
[26] = second compound 3.16 µM, first compound 0.1 µM
[27] = second compound 3.16 µM, first compound 0.316 µM
[28] = second compound 3.16 µM, first compound 1 µM
[29] = second compound 3.16 µM, first compound 3.16 µM
[30] = second compound 3.16 µM, first compound 10 µM
[31] = second compound 10 µM, first compound 0.0316 µM
[32] = second compound 10 µM, first compound 0.1 µM
[33] = second compound 10 µM, first compound 0.316 µM
[34] = second compound 10 µM, first compound 1 µM
[35] = second compound 10 µM, first compound 3.16 µM
[36] = second compound 10 µM, first compound 10 µM
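Throughout, for viability, T/C: 100% = DMSO vehicle control viability.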

## COc1cccc2c1C(=O)c1c(O)c3c(c(O)c1C2=O)CC(O)(C(=O)CO)CC3OC1CC(N)C(O)C(C)O1 (stereo unspecified) + CN(C)c1ccc(Nc2c3ccc(NC(=O)CCN4CCCC4)cc3nc3cc(NC(=O)CCN4CCCC4)ccc23)cc1
Second compound 0.0316 µM
  pIC50: 6.41
Second compound 0.1 µM
  pIC50: 6.43
Second compound 0.316 µM
  pIC50: 6.51
Second compound 1 µM
  pIC50: 6.55
Second compound 3.16 µM
  pIC50: 6.42
Second compound 10 µM
  pIC50: 6.36
[1]
  viability, T/C: 109%
[2]
  viability, T/C: 94.3%
[3]
  viability, T/C: 59.1%
[4]
  viability, T/C: 14.6%
[5]
  viability, T/C: 0.22%
[6]
  viability, T/C: 0.33%
[7]
  viability, T/C: 96.2%
[8]
  viability, T/C: 93.8%
[9]
  viability, T/C: 54.8%
[10]
  viability, T/C: 13%
[11]
  viability, T/C: 0.14%
[12]
  viability, T/C: 0.11%
[13]
  viability, T/C: 107%
[14]
  viability, T/C: 78.9%
[15]
  viability, T/C: 53.6%
[16]
  viability, T/C: 19.4%
[17]
  viability, T/C: 0.17%
[18]
  viability, T/C: 0.49%
[19]
  viability, T/C: 105%
[20]
  viability, T/C: 88.9%
[21]
  viability, T/C: 43.2%
[22]
  viability, T/C: 16.6%
[23]
  viability, T/C: 0.37%
[24]
  viability, T/C: 0.6%
[25]
  viability, T/C: 109%
[26]
  viability, T/C: 91%
[27]
  viability, T/C: 56.4%
[28]
  viability, T/C: 19.8%
[29]
  viability, T/C: 0.3%
[30]
  viability, T/C: 0.16%
[31]
  viability, T/C: 97.7%
[32]
  viability, T/C: 81.6%
[33]
  viability, T/C: 63.5%
[34]
  viability, T/C: 21.9%
[35]
  viability, T/C: 1.2%
[36]
  viability, T/C: 0.25%

## Nc1ccn(C2OC(CO)C(O)C2(F)F)c(=O)n1 (stereo unspecified) + CN(C)c1ccc(Nc2c3ccc(NC(=O)CCN4CCCC4)cc3nc3cc(NC(=O)CCN4CCCC4)ccc23)cc1
Second compound 0.0316 µM
  pIC50: > 7.50
Second compound 0.1 µM
  pIC50: > 7.50
Second compound 0.316 µM
  pIC50: > 7.50
Second compound 1 µM
  pIC50: > 7.50
Second compound 3.16 µM
  pIC50: > 7.50
Second compound 10 µM
  pIC50: > 7.50
[1]
  viability, T/C: 10.1%
[2]
  viability, T/C: 9.64%
[3]
  viability, T/C: 9.07%
[4]
  viability, T/C: 7.19%
[5]
  viability, T/C: 8.19%
[6]
  viability, T/C: 8.56%
[7]
  viability, T/C: 10.4%
[8]
  viability, T/C: 7.92%
[9]
  viability, T/C: 8%
[10]
  viability, T/C: 7.8%
[11]
  viability, T/C: 8.64%
[12]
  viability, T/C: 8.31%
[13]
  viability, T/C: 10.9%
[14]
  viability, T/C: 7.8%
[15]
  viability, T/C: 7.03%
[16]
  viability, T/C: 7%
[17]
  viability, T/C: 8.54%
[18]
  viability, T/C: 8.47%
[19]
  viability, T/C: 8.71%
[20]
  viability, T/C: 7.38%
[21]
  viability, T/C: 6.7%
[22]
  viability, T/C: 6.93%
[23]
  viability, T/C: 8.1%
[24]
  viability, T/C: 7.47%
[25]
  viability, T/C: 8.12%
[26]
  viability, T/C: 7.76%
[27]
  viability, T/C: 7.81%
[28]
  viability, T/C: 7.28%
[29]
  viability, T/C: 8%
[30]
  viability, T/C: 7.61%
[31]
  viability, T/C: 8.33%
[32]
  viability, T/C: 7.59%
[33]
  viability, T/C: 7.12%
[34]
  viability, T/C: 6.96%
[35]
  viability, T/C: 7.9%
[36]
  viability, T/C: 7.91%

## O=c1[nH]cc(F)c(=O)[nH]1 + CN(C)c1ccc(Nc2c3ccc(NC(=O)CCN4CCCC4)cc3nc3cc(NC(=O)CCN4CCCC4)ccc23)cc1
Second compound 0.0316 µM
  pIC50: < 5.00
Second compound 0.1 µM
  pIC50: < 5.00
Second compound 0.316 µM
  pIC50: < 5.00
Second compound 1 µM
  pIC50: 5.12
Second compound 3.16 µM
  pIC50: 5.20
Second compound 10 µM
  pIC50: 5.15
[1]
  viability, T/C: 99%
[2]
  viability, T/C: 97.1%
[3]
  viability, T/C: 89%
[4]
  viability, T/C: 98.8%
[5]
  viability, T/C: 68.8%
[6]
  viability, T/C: 50.8%
[7]
  viability, T/C: 98.9%
[8]
  viability, T/C: 87%
[9]
  viability, T/C: 102%
[10]
  viability, T/C: 102%
[11]
  viability, T/C: 67.5%
[12]
  viability, T/C: 54.2%
[13]
  viability, T/C: 94.2%
[14]
  viability, T/C: 94.5%
[15]
  viability, T/C: 101%
[16]
  viability, T/C: 93.4%
[17]
  viability, T/C: 62.1%
[18]
  viability, T/C: 51.1%
[19]
  viability, T/C: 87.5%
[20]
  viability, T/C: 91.3%
[21]
  viability, T/C: 98.6%
[22]
  viability, T/C: 112%
[23]
  viability, T/C: 64.7%
[24]
  viability, T/C: 45.1%
[25]
  viability, T/C: 97.2%
[26]
  viability, T/C: 104%
[27]
  viability, T/C: 104%
[28]
  viability, T/C: 101%
[29]
  viability, T/C: 66.5%
[30]
  viability, T/C: 39.1%
[31]
  viability, T/C: 90.9%
[32]
  viability, T/C: 98.4%
[33]
  viability, T/C: 98.5%
[34]
  viability, T/C: 102%
[35]
  viability, T/C: 65.3%
[36]
  viability, T/C: 43.3%
